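Grown in 96-well plates, cells were treated for 48 hours with each compound at five concentrations. Insufficient inhibition: endpoint recorded as highest concentration tested. TGI marks complete inhibition of growth.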
What was measured:
Assay in all cases: NCI anticancer screen, dose series, 48 h
NCI-H23 lung = system: NCI-H23 lung
SK-OV-3 ovarian = system: SK-OV-3 ovarian
MCF7 breast = system: MCF7 breast
HOP-62 NSCLC = system: HOP-62 NSCLC
DU-145 prostate = system: DU-145 prostate
MOLT-4 leukemia = system: MOLT-4 leukemia
MDA-MB-231 breast = system: MDA-MB-231 breast
OVCAR-3 ovarian = system: OVCAR-3 ovarian
NCI-H226 lung = system: NCI-H226 lung
ACHN renal = system: ACHN renal
SNB-19 CNS = system: SNB-19 CNS
HCT-116 colon = system: HCT-116 colon
OVCAR-5 ovarian = system: OVCAR-5 ovarian
TK-10 renal = system: TK-10 renal
CCRF-CEM leukemia = system: CCRF-CEM leukemia
SK-MEL-2 melanoma = system: SK-MEL-2 melanoma
SF-539 CNS = system: SF-539 CNS
CAKI-1 renal = system: CAKI-1 renal
SF-295 CNS = system: SF-295 CNS
K-562 leukemia = system: K-562 leukemia
UACC-257 melanoma = system: UACC-257 melanoma
786-0 renal = system: 786-0 renal
SK-MEL-5 melanoma = system: SK-MEL-5 melanoma
T-47D breast = system: T-47D breast
PC-3 prostate = system: PC-3 prostate
U251 CNS = system: U251 CNS
SK-MEL-28 melanoma = system: SK-MEL-28 melanoma
A549 NSCLC = system: A549 NSCLC
HOP-92 NSCLC = system: HOP-92 NSCLC
EKVX NSCLC = system: EKVX NSCLC
LOX IMVI melanoma = system: LOX IMVI melanoma
OVCAR-8 ovarian = system: OVCAR-8 ovarian
HCT-15 colon = system: HCT-15 colon
RPMI-8226 leukemia = system: RPMI-8226 leukemia
MDA-MB-435 = system: MDA-MB-435
NCI/ADR-RES ovarian = system: NCI/ADR-RES ovarian
COLO 205 colon = system: COLO 205 colon
IGROV1 ovarian = system: IGROV1 ovarian
UACC-62 melanoma = system: UACC-62 melanoma
SNB-75 CNS = system: SNB-75 CNS
HT29 colon = system: HT29 colon
RXF 393 renal = system: RXF 393 renal
MDA-N = system: MDA-N
OVCAR-4 ovarian = system: OVCAR-4 ovarian
MALME-3M melanoma = system: MALME-3M melanoma
HCC-2998 colon = system: HCC-2998 colon
SN12C renal = system: SN12C renal
NCI-H522 lung = system: NCI-H522 lung
KM12 colon = system: KM12 colon
M14 melanoma = system: M14 melanoma
UO-31 renal = system: UO-31 renal
NCI-H460 lung = system: NCI-H460 lung
SF-268 CNS = system: SF-268 CNS
HL-60(TB) leukemia = system: HL-60(TB) leukemia
A498 renal = system: A498 renal
BT-549 breast = system: BT-549 breast
SW-620 colon = system: SW-620 colon
SR leukemia = system: SR leukemia

Measured: TGI

C=C1[C@@H](OC(C)=O)[C@H]2[C@@H](OC(C)=O)[C@@](C)(OC(C)=O)C[C@]2(OC(C)=O)C(=O)[C@@H](C)/C=C/C(C)(C)C(=O)C[C@H]1OC(C)=O
not listed: NCI-H460 lung | SF-268 CNS | HL-60(TB) leukemia | A498 renal | BT-549 breast | SW-620 colon | SR leukemia
> 100 µM: all other assays above

CCOP(=O)(/C=C/n1ccc(=O)[nH]c1=O)OCC
not listed: HOP-92 NSCLC | MALME-3M melanoma | HCC-2998 colon | UO-31 renal | SR leukemia
> 100 µM: all other assays above

CC(=O)/C=C/CCC(=O)/C=C/C(=O)OC(CCC(=O)/C=C/C(=O)O)CC(C)=O (stereo not given)
not listed: SK-OV-3 ovarian | SK-MEL-2 melanoma | CAKI-1 renal | LOX IMVI melanoma | SNB-75 CNS | UO-31 renal | A498 renal
> 100 µM: all other assays above

From PubChem BioAssay (NCI)
